Usually inhibition stands for the relative decrease from the control value, in per cent.

The results in this text go back to patent US20260184663A1, “INDENE COMPOUNDS, PHARMACEUTICAL COMPOSITIONS THEREOF, AND THEIR THERAPEUTIC APPLICATIONS” (NucMito Pharmaceuticals co. Ltd., priority 2022, published 2026).

Common to all, as to assay type: cell-based
For test [1], the system named is alpha-smooth muscle actin (α-SMA). In words: Inhibition of TGF-β induced expression of alpha-smooth muscle actin (α-SMA) in CFSC cells (western blot). As to conditions: compound at 10 μM, TGF-β (10 ng/mL), 24 hours, band intensity vs TGF-β only. The method, boiled down:
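CFSC hepatic stellate cells in serum-free DMEM treated 24 h at 37 °C with compound at 10 μM plus TGF-β (10 ng/mL). α-SMA measured by Western blot with β-actin, ECL detection, densitometry. Percent inhibition is decrease in band intensity versus TGF-β-only cells.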
Background: In western blotting, separated proteins are transferred to a membrane and probed.

For another test, the system named is HepG2 (liver cancer). In words: Antiproliferative activity (CCK-8 cell viability), HepG2. As to conditions: Homo sapiens, 72 h, read-out: Antiproliferative activity in cancerous cells, HepG2 (inhibition of cell growth); for inhibition at 3.3 µM: Compound concentration: 3.3 μM; for inhibition at 10 µM: Compound concentration: 10 μM. The method in brief:
(§1)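 Cells were seeded at 2,000-5,000/well (HeLa in MEM, HepG2 and SW480 in DMEM, A549 in F-12K, all with 10% FBS) and treated with compound at 3.3, 10 or 30 μM for 72 h at 37° C. CCK-8 was added for 4 h, absorbance was read at 450 nm, and viability was expressed relative to DMSO-treated wells.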

The test system of the next test is SW480 (colon cancer). In words: Antiproliferative activity (CCK-8 cell viability), SW480. The conditions noted are these: Homo sapiens, 72 h, read-out: Antiproliferative activity in cancerous cells, SW480 (inhibition of cell growth); for inhibition at 3.3 µM: Compound concentration: 3.3 μM; for inhibition at 10 µM: Compound concentration: 10 μM. The method, boiled down:
as §1

Test [2] has as its system MDA-MB-231 (breast cancer). In words: Antiproliferative activity (CCK-8 cell viability), MDA-MB-231. The conditions noted are these: Homo sapiens, 72 h, read-out: Antiproliferative activity in cancerous cells, MDA-MB-231 (inhibition of cell growth); for inhibition at 3.3 µM: Compound concentration: 3.3 μM; for inhibition at 10 µM: Compound concentration: 10 μM. The method in brief: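 In this CCK-8 viability assay, MDA-MB-231 cells maintained in Dulbecco's modified Eagle's medium containing 10% fetal bovine serum were placed in 96-well plates (2,000-5,000 cells/well) and treated with compound for 72 h at 37° C. A 4 h incubation with 10 μL CCK-8 followed, plates were read at 450 nm, and viability was expressed against DMSO vehicle wells across replicates.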

In test [3] the test system is A431 (epidermoid carcinoma). The experiment in a line: Antiproliferative activity (CCK-8 cell viability), A431. The conditions noted are these: Homo sapiens, 72 h, read-out: Antiproliferative activity in cancerous cells, A431 (inhibition of cell growth); for inhibition at 3.3 µM: A-431, Compound concentration: 3.3 μM; for inhibition at 10 µM: A-431, Compound concentration: 10 μM. The method in brief: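 Cell viability of compound-treated A431 cells was measured with a Cell Counting Kit-8. Each well received 10 μL of CCK-8 after 72 h of compound exposure, followed by 4 h incubation at 37° C. and a 450 nm plate-reader measurement. Percent viability was calculated relative to DMSO controls across replicates.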

The test system of another test is HeLa (cervical cancer). The experiment in a line: Antiproliferative activity (CCK-8 cell viability), HeLa. As to conditions: Homo sapiens, 72 h, read-out: Antiproliferative activity in cancerous cells, HELA (inhibition of cell growth); for inhibition at 3.3 µM: Compound concentration: 3.3 μM; for inhibition at 10 µM: Compound concentration: 10 μM. The method, boiled down:
as §1

For test [4], the system named is A549 (lung adenocarcinoma). In words: Antiproliferative activity (CCK-8 cell viability), A549. As to conditions: Homo sapiens, 72 h, read-out: Antiproliferative activity in cancerous cells, A549 (inhibition of cell growth); for inhibition at 3.3 µM: Compound concentration: 3.3 μM; for inhibition at 10 µM: Compound concentration: 10 μM. The method, boiled down: as §1

The subject of test [5] is B16F10 (malignant melanoma). In words: Antiproliferative activity (CCK-8 cell viability), B16F10. As to conditions: Mus musculus, 72 h, read-out: Antiproliferative activity in cancerous cells, B16F10 (inhibition of cell growth); for inhibition at 3.3 µM: B16-F10, Compound concentration: 3.3 μM; for inhibition at 10 µM: B16-F10, Compound concentration: 10 μM. The method in brief: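 Attached B16F10 cells in 96-well plates were incubated with compound at 37° C for 72 h, followed by 10 μL CCK-8 reagent per well and a further 4 h incubation. A multi-well plate reader measured absorbance at 450 nm. Percent viability across replicates was calculated against DMSO vehicle-treated cells.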

Molecules are shown by their SMILES.

Regarding `O=C(O)CC1=C(Cc2ccc(Oc3ccc(F)cc3)cc2)/C(=C/c2ccc(N3CCOCC3)cc2)c2ccc(F)cc21` [A102, (Z)-2-(5-Fluoro-2-(4-(4-fluorophenoxy)benzyl)-1-(4-morpholinobenzylidene)-1H-inden-3-yl)acetic acid], the inhibition at 10 µM in test [1] was above 80%; in the test with HepG2 (liver cancer), at least 50%; with SW480 (colon cancer) it was at least 50%; in test [2], at least 50%; in test [3], at least 50%; with HeLa (cervical cancer), at least 50%. The inhibition at 10 µM in test [4] and in test [5] was at least 50% throughout. Besides, the inhibition at 3.3 µM (in the test on HepG2 (liver cancer); with SW480 (colon cancer); in test [2]; in test [3]; in the test with HeLa (cervical cancer); in test [4]) was at least 50% throughout. The inhibition at 3.3 µM in test [5] is at least 50%.

Take `CC(C)c1ccc(/C=C2/C(Cc3ccc(Oc4ccc(F)cc4)cc3)=C(CC(=O)O)c3cc(F)ccc32)cc1` [A103, (Z)-2-(5-Fluoro-2-(4-(4-fluorophenoxy)benzyl)-1-(4-isopropylbenzylidene)-1H-inden-3-yl)acetic acid]: the inhibition at 10 µM is above 80% in test [1]; at least 50% in the test on HepG2 (liver cancer); at least 50% with SW480 (colon cancer); at least 50% in test [2]; at least 50% in test [3]; at least 50% with HeLa (cervical cancer). In addition, the inhibition at 10 µM in test [4] and in test [5] was at least 50% in each case. In addition, the inhibition at 3.3 µM (with HepG2 (liver cancer); with SW480 (colon cancer); in test [2]; in test [3]; in the test on HeLa (cervical cancer); in test [4]) was at least 50% each time. Besides, the inhibition at 3.3 µM in test [5] is at least 50%.

In the case of `CCc1ccc(/C=C2/C(Cc3ccc(Oc4ccc(F)cc4)cc3)=C(CC(=O)O)c3cc(F)ccc32)cc1` [A104, (Z)-2-(1-(4-Ethylbenzylidene)-5-fluoro-2-(4-(4-fluorophenoxy)benzyl)-1H-inden-3-yl)acetic acid], the inhibition at 10 µM in test [1] is above 80%; in the test on HepG2 (liver cancer), at least 50%; in the test on SW480 (colon cancer) it was at least 50%; in test [2] it was at least 50%; in test [3] it was at least 50%; with HeLa (cervical cancer), at least 50%. Also, the inhibition at 10 µM in test [4] and in test [5] was at least 50% in each case. The inhibition at 3.3 µM (with HepG2 (liver cancer); with SW480 (colon cancer); in test [2]; in test [3]; with HeLa (cervical cancer); in test [4]) was at least 50% throughout. The inhibition at 3.3 µM in test [5] is at least 50%.

Regarding `O=C(O)CC1=C(Cc2ccc(Oc3ccc(F)cc3)cc2)/C(=C/c2ccc(F)cc2)c2ccc(F)cc21` [A105, (Z)-2-(5-Fluoro-1-(4-fluorobenzylidene)-2-(4-(4-fluorophenoxy)benzyl)-1H-inden-3-yl)acetic acid], the inhibition at 10 µM in test [1] is above 80%; in the test with HepG2 (liver cancer), at least 50%; in the test with SW480 (colon cancer) it was at least 50%; in test [2] it was at least 50%; in test [3], at least 50%; with HeLa (cervical cancer), at least 50%. The inhibition at 10 µM in test [4] and in test [5] was at least 50% in each case. The inhibition at 3.3 µM (with HepG2 (liver cancer); in the test on SW480 (colon cancer); in test [2]; in test [3]; in the test with HeLa (cervical cancer); in test [4]) was at least 50% each time. Further, in test [5], the inhibition at 3.3 µM was at least 50%.

Regarding `O=C(O)CC1=C(Cc2ccc(Oc3ccc(F)cc3)cc2)/C(=C/C2CC2)c2ccc(F)cc21` [A106, (Z)-2-(1-(Cyclopropylmethylene)-5-fluoro-2-(4-(4-fluorophenoxy)benzyl)-1H-inden-3-yl)acetic acid], the inhibition at 10 µM in test [1] is above 80%; in the test with HepG2 (liver cancer) it was at least 50%; with SW480 (colon cancer), at least 50%; in test [2], at least 50%; in test [3], at least 50%; with HeLa (cervical cancer), at least 50%. The inhibition at 10 µM in test [4] and in test [5] was at least 50% each time. For the same compound, the inhibition at 3.3 µM was below 30% with HepG2 (liver cancer); below 30% in the test on SW480 (colon cancer); below 30% in test [2]; below 30% in test [3]; 30 to 50% in the test with HeLa (cervical cancer); 30 to 50% in test [4]. In addition, the inhibition at 3.3 µM in test [5] lay within 30 to 50%.

`O=C(O)CC1=C(Cc2ccc(Oc3ccc(F)cc3)cc2)/C(=C/c2ccc(C(F)(F)F)cc2)c2ccc(F)cc21` [A108, (Z)-2-(5-Fluoro-2-(4-(4-fluorophenoxy)benzyl)-1-(4-(trifluoromethyl)-benzylidene)-1H-inden-3-yl)acetic acid]: the inhibition at 10 µM is above 80% in test [1]; below 30% with HepG2 (liver cancer); at least 50% with SW480 (colon cancer); at least 50% in test [2]; at least 50% in test [3]; at least 50% with HeLa (cervical cancer). Further, the inhibition at 10 µM in test [4] and in test [5] was at least 50% each time. Besides, the inhibition at 3.3 µM is below 30% with HepG2 (liver cancer); below 30% in the test with SW480 (colon cancer); at least 50% in test [2]; at least 50% in test [3]; below 30% in the test on HeLa (cervical cancer); at least 50% in test [4]. Besides, the inhibition at 3.3 µM in test [5] is at least 50%.

Take `O=C(O)CC1=C(Cc2ccc(Oc3ccc(F)cc3)cc2)/C(=C/c2cccc(C(F)(F)F)c2)c2ccc(F)cc21` [A109, (Z)-2-(5-Fluoro-2-(4-(4-fluorophenoxy)benzyl)-1-(3-(trifluoromethyl)-benzylidene)-1H-inden-3-yl)acetic acid]: the inhibition at 10 µM in test [1] is above 80%; with HepG2 (liver cancer), below 30%; with SW480 (colon cancer), below 30%; in test [2] it was at least 50%; in test [3], at least 50%; in the test on HeLa (cervical cancer), at least 50%. In addition, the inhibition at 10 µM in test [4] and in test [5] was at least 50% in each case. Also, the inhibition at 3.3 µM in the test on HepG2 (liver cancer) is below 30%; in the test on SW480 (colon cancer), below 30%; in test [2], at least 50%; in test [3], 30 to 50%; in the test on HeLa (cervical cancer), below 30%; in test [4], at least 50%. The inhibition at 3.3 µM in test [5] was below 30%.
